As usually defined, the bioavailability is dose-corrected exposure relative to a reference, in per cent. Usually half-life stands for the time in which the quantity being followed falls by half.

This is an account of results in patent publication US20180071242A1, “SUBSTITUTED ACYLANILIDES AND METHODS OF USE THEREOF” (University of Tennessee Research Foundation, priority 2006, published 2018).

“Also recorded” adds a separate entry of the source.

The target of one series is T1, GR (Rattus norvegicus, UniProt P06536).
T1 construct: expressed in transfected cells; host or cells: HEK-293
T1 sequence (P06536 1-795): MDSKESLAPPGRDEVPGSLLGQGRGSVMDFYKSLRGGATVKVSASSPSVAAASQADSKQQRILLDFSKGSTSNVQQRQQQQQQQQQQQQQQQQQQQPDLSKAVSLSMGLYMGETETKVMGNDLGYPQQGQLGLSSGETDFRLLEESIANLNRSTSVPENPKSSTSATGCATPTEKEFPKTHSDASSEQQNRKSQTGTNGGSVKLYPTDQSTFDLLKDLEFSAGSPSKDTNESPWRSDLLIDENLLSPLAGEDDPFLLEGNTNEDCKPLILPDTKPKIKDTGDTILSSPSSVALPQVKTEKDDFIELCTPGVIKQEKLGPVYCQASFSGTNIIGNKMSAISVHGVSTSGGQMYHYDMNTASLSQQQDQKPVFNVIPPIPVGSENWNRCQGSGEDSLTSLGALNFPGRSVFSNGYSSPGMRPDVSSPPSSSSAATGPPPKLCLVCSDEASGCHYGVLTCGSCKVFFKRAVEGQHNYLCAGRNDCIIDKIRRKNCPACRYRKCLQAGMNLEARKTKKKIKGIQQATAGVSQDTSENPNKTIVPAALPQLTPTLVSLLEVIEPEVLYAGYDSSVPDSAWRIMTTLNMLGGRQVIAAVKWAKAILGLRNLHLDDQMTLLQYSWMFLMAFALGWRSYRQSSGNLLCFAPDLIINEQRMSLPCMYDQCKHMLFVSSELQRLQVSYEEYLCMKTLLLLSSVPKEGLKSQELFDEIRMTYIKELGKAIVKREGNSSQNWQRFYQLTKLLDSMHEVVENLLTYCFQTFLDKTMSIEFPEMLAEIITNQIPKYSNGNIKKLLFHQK
Description: Transient transfection luciferase transactivation assay in HEK-293 cells. In kind it is cell-based. The conditions noted are these: for GR-mediated transactivation, agonist mode (in words): all tested concentrations; for Inhibition of dexamethasone-induced GR-mediated transactivation, antagonist mode (in words): with 1 nM dexamethasone.

Another series addresses T2, PR (Rattus norvegicus, UniProt Q63449).
T2 construct: expressed in transfected cells; host or cells: HEK-293
T2 sequence (Q63449 1-923): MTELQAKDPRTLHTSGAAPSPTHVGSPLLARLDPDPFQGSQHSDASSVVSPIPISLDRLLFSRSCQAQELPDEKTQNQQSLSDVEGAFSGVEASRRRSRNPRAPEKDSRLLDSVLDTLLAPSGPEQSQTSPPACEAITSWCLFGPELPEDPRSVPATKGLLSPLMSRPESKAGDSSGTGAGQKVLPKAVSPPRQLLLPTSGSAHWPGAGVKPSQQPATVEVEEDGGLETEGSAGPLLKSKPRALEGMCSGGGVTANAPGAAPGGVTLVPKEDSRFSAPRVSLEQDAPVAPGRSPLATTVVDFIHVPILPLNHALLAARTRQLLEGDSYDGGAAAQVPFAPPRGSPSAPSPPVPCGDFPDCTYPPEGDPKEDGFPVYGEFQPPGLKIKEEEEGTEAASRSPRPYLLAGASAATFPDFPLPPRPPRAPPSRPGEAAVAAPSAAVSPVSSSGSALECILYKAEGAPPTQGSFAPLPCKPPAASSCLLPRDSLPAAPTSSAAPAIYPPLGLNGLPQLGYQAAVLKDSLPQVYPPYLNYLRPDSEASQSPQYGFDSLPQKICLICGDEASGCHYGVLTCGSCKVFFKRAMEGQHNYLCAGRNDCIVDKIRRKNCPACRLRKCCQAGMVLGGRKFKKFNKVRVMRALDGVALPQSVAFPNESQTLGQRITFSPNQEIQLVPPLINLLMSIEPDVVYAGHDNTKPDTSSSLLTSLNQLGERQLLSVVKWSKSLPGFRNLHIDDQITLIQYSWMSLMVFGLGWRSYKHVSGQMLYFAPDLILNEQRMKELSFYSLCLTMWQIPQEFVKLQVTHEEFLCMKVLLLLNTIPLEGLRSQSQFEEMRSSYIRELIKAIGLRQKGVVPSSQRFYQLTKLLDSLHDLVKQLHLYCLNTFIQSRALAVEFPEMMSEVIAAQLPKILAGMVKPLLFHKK
Described as above. To be noted: for PR-mediated transactivation, agonist mode (in words): all tested concentrations. In kind it is cell-based.

Series [1] deals with intact male Sprague-Dawley rats. Description: Anabolic and androgenic activity in intact male rats. In kind it is in vivo, rat. As for the experimental part: Anabolic and androgenic efficacy of compound of formula (I) administered by daily oral gavage were tested. The S-isomer of compound (I) [S-(I)] was synthesized and tested as described herein.
The test article for this study was weighed and dissolved in 10% DMSO (Fischer) diluted with PEG 300 (Acros Organics, NJ) for preparation of the appropriate dosage concentrations. The animals were housed in groups of 2 to 3 animals per cage. Animals were randomly assigned to one of seven groups consisting of 4 to 5 animals per group. Control groups (intact and ORX) were administered vehicle daily. S-(I) was administered via oral gavage at doses of 0.01, 0.03, 0.1, 0.3, 0.75, and 1 mg/day to both intact and ORX groups. Where appropriate, animals were castrated on day one of the study. […]
The animals were sacrificed under anesthesia (ketamine/xyalzine, 87:13 mg/kg) and body weights were recorded. In addition, ventral prostate, seminal vesicles, and levator ani muscle were removed, individually weighed, normalized to body weight, and expressed as a percentage of intact control. […] Ventral prostate and seminal vesicle weights were evaluated as a measure of androgenic activity, whereas levator ani muscle weight was evaluated as a measure of anabolic activity. […] Serum luteinizing hormone (LH) and follicle stimulating hormone (FSH) concentrations were determined.

Another series can be described thus: Pharmacokinetics in dogs. To be noted: beagle dogs. Type of series: in vivo. The procedure: In order to determine the pharmacokinetics of the S-isomer of the compound of formula (I) [S-(I)], the compound was administered to beagle dogs perorally, and circulating plasma levels, terminal elimination half-life (t1/2), total body clearance (CL), terminal volume distribution (Vz) and absolute bioavailability (F %) (Table 4) were determined.

The subject of series [2] is DMD (−/−) UTRN (+/+) mice. Description: mdx mouse model of Duchenne muscular dystrophy.
Series [3] has as its system DMD (−/−) UTRN (−/−) mice. Description: Double knockout mouse model of Duchenne muscular dystrophy. The conditions noted are these: 10 mg/kg/day, data cumulative across the SARM groups.
Setting [4] is: 1 and 10 μM, with 1 nM progesterone.
The mark [5] stands for this setting: castrated mdx mice, 10 mg/kg/day subcutaneously, 12 weeks.
The mark [6] stands for this setting: castrated mdx mice, 10 mg/kg/day subcutaneously, 12 weeks, 10 mg/kg/day.

Regarding `C[C@](O)(COc1ccc(F)cc1)C(=O)Nc1ccc(C#N)c(C(F)(F)F)c1` [S-(III)], on GR, the “GR-mediated transactivation, agonist mode (in words)” value is recorded as “did not induce” and the “Inhibition of dexamethasone-induced GR-mediated transactivation, antagonist mode (in words)” value is listed as “not inhibited”. The “Inhibition of PR activity, antagonist mode (in words)” value (from here on “Inhibition of PR activity”) on PR (setting [4]) is recorded as “significantly inhibited”. The “PR-mediated transactivation, agonist mode (in words)” value on PR was “did not induce”.

Take `C[C@](O)(COc1ccc(C#N)cc1)C(=O)Nc1ccc(C#N)c(Cl)c1` [S-(I), (S)—N-(3-chloro-4-cyanophenyl)-3-(4-cyanophenoxy)-2-hydroxy-2-methylpropanamide]: on GR, the “GR-mediated transactivation, agonist mode (in words)” value is listed as “failed to activate” and the “Inhibition of dexamethasone-induced GR-mediated transactivation, antagonist mode (in words)” value is “failed to alter”. For the same compound, the “Inhibition of PR activity” value at PR (0.1 μM and 10 μM) was “significantly partially inhibited”. Besides, on PR (1 μM), the “Increase of PR transactivation, agonist mode” value was 3 fold and the “Inhibition of PR-mediated transactivation, antagonist mode (in words)” value is on record as “completely inhibited”. Further, at PR (10 μM), the “Increase of PR transactivation, agonist mode” value was 8 fold. Further, the “PR-mediated transactivation, agonist mode (in words)” value at PR is reported as “partial agonist activity”. In addition, on PR (versus RU486), the “PR antagonistic activity relative to RU486 (fold weaker)” value is “about 1,000 fold”. Further, the “PR agonist potency relative to progesterone (fold weaker)” value on PR (versus endogenous agonist progesterone) is given as “greater than 10,000 fold”. The “Seminal vesicles weight (in words)” value in series [1] is on record as “decreases”. For the same compound, the “Absorption (in words)” value in the series “Pharmacokinetics in dogs” (perorally) is “rapidly and completely absorbed”. Also, the bioavailability in “Pharmacokinetics in dogs” (dog, plasma, oral, perorally, read-out: F%, absolute bioavailability) came out at 96.2%. The clearance in the series “Pharmacokinetics in dogs” (dog, plasma, oral, read-out: CL, total body clearance) was determined as 1.68 ± 0.13 mL/min/kg. In addition, the Vd in “Pharmacokinetics in dogs” (dog, plasma, oral, read-out: Vz, terminal volume distribution) turned out to be 1.52 ± 0.142 L/kg. Further, the half-life in the series “Pharmacokinetics in dogs” (dog, plasma, oral, read-out: t½, terminal elimination half-life (converted)) was 10.4 ± 0.5 h. In series [2] (setting [5]), the “Fat mass (in words)” value was “decrease” and the “Grip strength (in words)” value is reported as “significant increase”. Besides, in series [2] (setting [6]), the “Body weight (in words)” value was “increased; also recorded: significant increase” and the “Lean [muscle] mass (in words)” value is “increased; also recorded: significant increase”. Also, in series [2] (intact mdx mice), the “Body weight (in words)” value is given as “increased” and the “Lean mass (in words)” value was “increased”. In addition, in series [3], the “Ability to be ambulatory (in words)” value is “enhanced the ability of these mice to be ambulatory”, the “Deterioration of body weight (in words)” value was “delayed the deterioration”, the “Deterioration of grip strength (in words)” value is recorded as “delayed the deterioration” and the “Deterioration of lean mass (in words)” value was “delayed the deterioration”.

Take `C[C@](O)(COc1ccc(Cl)cc1)C(=O)Nc1ccc(C#N)c(C(F)(F)F)c1` [S-(II)]: on GR, the “GR-mediated transactivation, agonist mode (in words)” value is recorded as “did not induce” and the “Inhibition of dexamethasone-induced GR-mediated transactivation, antagonist mode (in words)” value is “not inhibited”. The “Inhibition of PR activity” value at PR (setting [4]) was “significantly inhibited”. Further, the “PR-mediated transactivation, agonist mode (in words)” value on PR was “did not induce”.
